According to patent US7354611B1, “Fecundity-promoting supplement for the insidious flower bug reared on artificial diet” (The United States of America as represented by the …, priority 2003, dated 2008):

Test system: Orius insidiosus
Test: Orius insidiosus fecundity (oviposition) bioassay: adults fed artificial diet with or without supplement, cumulative eggs laid/female counted on green bean
Assay type: in vivo
Settings: Test 2
Protocol: Newly emerged adults of Orius insidiosus (<24 hour eclosion) were obtained from a commercial producer of beneficial insects (Entomos, Gainesville, Fla.). The insects were placed on the experimental diets on the third day after eclosion. Each diet treatment consisted of six females and four males in a 100-ml plant tissue culture jar (Sigma, St. Louis, Mo.) with four jars per treatment. Each jar contained one paraffin-encapsulated water dome (50 μl), two artificial diet domes (50 μl), one 7-cm section of green bean pod for oviposition, and three crumpled strips of wax paper (5 mm×80 mm) as substrates for the insects to crawl on. Artificial diet jars contained only artificial diet. Experimental diet jars contained artificial diet plus a supplement. Plodia egg (standard) jars each contained approximately 75 Ploida interpunctella eggs (approximately 3 mg) in place of diet. Although eggs from Euphestia kuehniella are generally used by commercial producers, eggs from P. interpunctella were used because O. insidiosus feeds readily on their eggs. Green beans were removed every other day and examined under a microscope to count eggs and then replaced with a fresh green bean section and mortality was also recorded within each jar. Plodia eggs and domes of water and diet were replaced on the same days that the green beans were removed for counting eggs. The insects were held in a growth chamber at about 25.50±1° C., with approximately 75±5% relative humidity, and a photoperiod of 15:9 (light:dark) hours. The experiments were carried out until the females in all treatments ceased oviposition, approximately 28 days. Diets were prepared under aseptic conditions in a clean room and encapsulated in Parafilm using a diet encapsulation apparatus as described in Ferkovich et al. (BioControl, Volume 45, 401-413, 2000).
The artificial diet was developed for rearing Orius sauteri (Weiru and Ren, 1989, supra), and consisted of approximately 4.0 grams brewers yeast, 0.4 grams sucrose, 2.1 grams soy protein acid hydrolysate, 0.046 grams of 99% palmitic acid (all from Sigma, St. Louis, Mo.), 0.5 grams chicken egg yolk, and 1.0 gram honey in 12 ml distilled water. Palmitic acid was mixed with the egg yolk component before adding it to the diet.
Two tests were conducted. In the first test, artificial diet was compared with the experimental diets which were composed of artificial diet supplemented with homogenized Plodia eggs, and protein and lipid extracts from Plodia eggs as described above. Each experimental diet was compared against the control artificial diet in an independent experiment on different dates. In the second test, any of the statistically significant experimental diets from the first test were then simultaneously compared with the experimental diets containing non-insect supplements.
Each treatment in both tests was replicated four times with 6 females and 4 males/replication. The cumulative number of eggs laid/female on artificial diet and on experimental diet were calculated relative to the percent eggs laid/female on Plodia eggs (standard); thus, mean ±S.E.=[#eggs laid per female on either artificial diet or experimental diet divided by # eggs laid per female on Plodia eggs]×100, n=4. The egg counts were adjusted for mortality. The egg counts per female were calculated for each replication. Data was analyzed by ANOVA using StatMost Software (Dataxiom Software Inc.). […]

[1] = Bovine Serum Albumin 83.3 mg/ml diet
[2] = Bovine Serum Albumin 166.7 mg/ml diet

For “Bovine Serum Albumin: Bovine Serum albumin, Fraction V powder, Sigma”, the “% of Plodia egg Standard ± SE” value [1] was 51.3 ± 4.1%, the “Mean no. eggs/female ± SE” value [1] was 19.7 ± 1.6 eggs/female and the “% of Plodia egg Standard ± SE” value [2] was 64.9 ± 4.2%. The “Mean no. eggs/female ± SE” value [2] was 24.9 ± 1.6 eggs/female and the “effect on cumulative mean number of egg oviposited/female” value (versus artificial diet (Table 2)) was “significantly increased”.
